A value given as a limit tells only on which side of the number the result lay.

This experiment addresses Sepiapterin reductase (Homo sapiens, UniProt P35270). As to the kind of experiment: Inhibition of sepiapterin reductase (unknown origin).

Sequence of Sepiapterin reductase (P35270 whole entry): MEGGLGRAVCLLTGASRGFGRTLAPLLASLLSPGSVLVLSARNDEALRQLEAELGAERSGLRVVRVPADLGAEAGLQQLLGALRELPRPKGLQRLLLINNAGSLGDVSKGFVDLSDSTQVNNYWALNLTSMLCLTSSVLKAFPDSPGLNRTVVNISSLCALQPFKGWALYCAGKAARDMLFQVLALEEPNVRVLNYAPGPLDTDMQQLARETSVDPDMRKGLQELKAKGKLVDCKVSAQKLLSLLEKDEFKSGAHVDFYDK

Take `Cc1nn(C)c2ncc(C(=O)c3ccccc3O)cc12`: under “read-out: IC50”, the IC50 is 80 nM.

For `Cc1n[nH]c2ncc(C(=O)c3cc(F)ccc3O)cc12`, the IC50 (read-out: IC50) is 50 nM.

On to `COc1ccc(O)c(C(=O)c2cnc3c(c2)c(C)nn3C)c1`, for which the IC50 (read-out: IC50) worked out at 2500 nM.

`Cc1nn(CCO)c2ncc(C(=O)c3cc(F)ccc3O)cc12`: the IC50 (read-out: IC50) was determined as 50 nM.

For `COc1cc(C(F)(F)F)ccc1-c1nc(Cl)cc2cc(S(=O)(=O)Nc3nccs3)ccc12`, under “read-out: pIC50 (converted)”, the IC50 is 1780 nM.

For the compound `COc1cc(C(F)(F)F)ccc1-c1nccc2cc(S(=O)(=O)Nc3ccc(F)cn3)ccc12`, where the note is “read-out: pIC50 (converted)”, the IC50 is 1780 nM.

For `CC1(C)C=Cc2c(c(CCO)c3occ(-c4ccc(O)c(O)c4)c(=O)c3c2O)O1`, the IC50 (read-out: pIC50 (converted)) is 6170 nM.

As to `Cc1nn(C2CCOC2)c2ncc(C(=O)c3ccccc3O)cc12` (stereo not given), the IC50 (read-out: IC50) came out at 30 nM.

For `COc1ccc(O)c(C(=O)c2cnc3c(c2)c(C)nn3-c2cccc(Cl)c2)c1`, for the setting “read-out: IC50”, the IC50 was over 19000 nM.

For the compound `CCOC(=O)C1=C(O)C2(CCC(=CC(=O)OC)CC2)c2ccc(Cl)cc2C1=O` (stereo not given), the negative-log IC50 (pIC50) (in general, the negative decadic logarithm of the IC50, by convention in mol/L) was 5.39.

For `Cc1ccc(O)c(C(=O)c2cnc3c(c2)c(C)nn3-c2ccccn2)c1`, the IC50 (read-out: IC50) turned out to be 1720 nM.

As to `Cc1nn(-c2ccccn2)c2ncc(C(=O)N(C)C)cc12`, the IC50 (read-out: IC50) is over 19000 nM.

Turning to `O=C(Nc1nc2ccc(CN3CCCCC3)cc2n1[C@H]1CC[C@@H](C(=O)O)CC1)c1ccc(F)cc1`, the IC50 (read-out: pIC50 (converted)) is 3020 nM.

As to `Cc1ccc(C(=O)c2ccccc2O)c(O)n1`, under “read-out: pIC50 (converted)”, the IC50 was 8130 nM.

For the compound `CCn1ncc(C(=O)c2cc(Cl)c(N(C)S(=O)(=O)N(C)C)cc2OC)c1O`, for the setting “read-out: pIC50 (converted)”, the IC50 was 57.5 nM.

In the case of `CC1(C)C(O)=C(C(N)=O)C(=O)c2cc(C(=O)NCCc3ccccc3)ccc21`, the IC50 (read-out: pIC50 (converted)) was 3240 nM.

Turning to `Cc1ccc(-n2nc(C)c3cc(C(=O)c4cc(C)ccc4O)cnc32)cc1`, the IC50 (read-out: IC50) was over 19000 nM.

As to `COc1ccc(O)c(C(=O)c2cnc3c(c2)c(C)nn3-c2ccccc2)c1`, the IC50 (read-out: IC50) was 17000 nM.

With `O=C(Nc1cccc(C(F)(F)F)c1)N1CCC(S(=O)(=O)Nc2nccs2)CC1`, the IC50 (read-out: pIC50 (converted)) is 9550 nM.

Regarding `Cc1ccc(O)c(C(=O)c2cnc3c(c2)c(C)nn3-c2ccc(F)cc2)c1`, for the setting “read-out: IC50”, the IC50 is over 19000 nM.

In the case of `Cc1nn(-c2ccccn2)c2ncc(C(=O)O)cc12`, the IC50 (read-out: IC50) was over 19000 nM.

`Cc1nn(-c2ccc(F)cc2)c2ncc(C(=O)c3ccccc3O)cc12`: the IC50 (read-out: IC50) was 820 nM.

`O=C(CN(c1cccc(Cl)c1)S(=O)(=O)c1cccnc1)N[C@H]1CC[C@H](n2c(=O)[nH]c3ccccc32)CC1`: where the note is “read-out: pIC50 (converted)”, the IC50 was 9120 nM.

Take `Cn1nc(-c2cccnc2)c2c1NC(=O)C[C@@H]2c1ccc2cccc(O)c2n1`: the IC50 (read-out: pIC50 (converted)) was 4370 nM.

As for `Cc1nn(-c2ncccn2)c2ncc(C(=O)c3ccccc3O)cc12`, the IC50 (read-out: IC50) stood at 140 nM.

For `Cc1cc(C(=O)C2C(=O)CC(C)CC2=O)c(C)c2c1S(=O)(=O)CCc1cn(C)nc1-2` (stereo not given), the IC50 (read-out: pIC50 (converted)) is 324 nM.

On to `FC(F)(F)Oc1cccc(-n2nnnc2N2CCN(c3ncnc4sc5c(c34)CCC5)CC2)c1`, for which the IC50 (read-out: pIC50 (converted)) is 7590 nM.

Take `Cc1nn(-c2ccccc2)c2ncc(C(=O)c3cc(F)ccc3O)cc12`: for the setting “read-out: IC50”, the IC50 was 180 nM.

On to `Cc1nn(CCO)c2ncc(C(=O)c3cc(Cl)ccc3O)cc12`, for which the IC50 (read-out: IC50) turned out to be 40 nM.

As to `CCOC(=O)c1c(C)n(C)c2cc(Nc3ccccc3)c(O)cc12`, under “read-out: pIC50 (converted)”, the IC50 is 6760 nM.

`Cc1nn(C2CCCS2(=O)=O)c2ncc(C(=O)c3cc(F)ccc3O)cc12` (stereo not given): the IC50 (read-out: IC50) stood at 20 nM.

As to `Cc1nn(-c2ccccc2)c2ncc(C(=O)c3ccccc3O)cc12`, for the setting “read-out: IC50”, the IC50 turned out to be 860 nM.

Take `COc1ccc(O)c(C(=O)c2cnc3c(c2)c(C)nn3-c2cccc(C)c2)c1`: the IC50 (read-out: IC50) is over 19000 nM.

`Cc1nn(C2CCOCC2)c2ncc(C(=O)c3ccccc3O)cc12`: the IC50 (read-out: IC50) is 20 nM.

Consider `Cc1nn(-c2ccccn2)c2ncc(C(=O)c3ccccc3O)cc12`, for which the IC50 was 180 nM (read-out: IC50) and 66.1 nM (read-out: pIC50 (converted)).

With `O=S(=O)(Nc1ccccn1)c1ccc2c(c1)OCCO2`, for the setting “read-out: pIC50 (converted)”, the IC50 is 603 nM.

On to `Cc1nn(-c2ccccn2)c2ncc(C(=O)c3cc(Cl)ccc3O)cc12`, for which, where the note is “read-out: IC50”, the IC50 was 80 nM.

As for `O=S(=O)(Nc1nccs1)c1ccc2c(c1)OCCN2CCc1ccncc1`, under “read-out: pIC50 (converted)”, the IC50 is 575 nM.

For the compound `Cc1ccnc(-n2nc(C)c3cc(C(=O)c4ccccc4O)cnc32)c1`, the IC50 (read-out: IC50) is 50 nM.

`Cc1nn(-c2ccncn2)c2ncc(C(=O)c3ccccc3O)cc12`: the IC50 (read-out: IC50) worked out at 140 nM.

With `O=C(O)c1ccc2c(C(c3ccc(Cl)cc3Cl)c3c[nH]c4cc(C(=O)O)ccc34)c[nH]c2c1`, where the note is “read-out: pIC50 (converted)”, the IC50 was 9550 nM.

In the case of `CCOC(=O)CNCc1c(C(=O)CC)c2cc(OC)c(Br)cc2n1C`, where the note is “read-out: pIC50 (converted)”, the IC50 was 7940 nM.

For `Cc1nn(-c2ccccc2F)c2ncc(C(=O)c3ccccc3O)cc12`, where the note is “read-out: IC50”, the IC50 worked out at 50 nM.

As for `CCCc1cc(C(=O)N2CCC(C3Nc4ccccc4S(=O)(=O)N3)CC2)[nH]n1` (stereo not given), under “read-out: pIC50 (converted)”, the IC50 is 2950 nM.

Consider `Cc1nn(-c2ccccn2)c2ncc(C(=O)c3cc(F)ccc3O)cc12`, for which the IC50 (read-out: IC50) was 40 nM.

With `Cc1cccc(-n2nc(C)c3cc(C(=O)c4ccccc4O)cnc32)c1`, where the note is “read-out: IC50”, the IC50 turned out to be 1360 nM.

As for `Cc1ccc(O)c(C(=O)c2cnc3c(c2)c(C)nn3C)c1`, the IC50 (read-out: IC50) amounted to 970 nM.

Consider `Cc1ccc(O)c(C(=O)c2cnc3c(c2)c(C)nn3-c2ccccc2)c1`, for which, for the setting “read-out: IC50”, the IC50 was over 19000 nM.

As for `Cc1nn(C)c2ncc(C(=O)c3cc(F)ccc3O)cc12`, under “read-out: IC50”, the IC50 worked out at 40 nM.

Values taken from ChEMBL document CHEMBL4602609, “Virtual screening to identify potent sepiapterin reductase inhibitors” (Bioorg Med Chem Lett, 2020).
